From US20110166196A1, “TREATMENT AND PROPHYLAXIS OF EPILEPSY AND FEBRILE SEIZURES” (priority 2008, published 2011)

Key:
[1] = system: excitatory synapses onto CA1 hippocampal interneurons; assay: Drug-induced depression of EPSC amplitudes, whole-cell recording in hippocampal slices; format: cell-based, rat
Source text: (§1) The basic methods have been detailed previously (McMahon and Kauer, 1997). Sprague-Dawley rats (15-22 days old) were used in the majority of experiments. In addition, we used TRPV1^−/− mice (Caterina et al., 2000) and wild-type C57BL/6 mice aged between 15 and 21 days (Jackson Laboratory). The TRPV1^−/− mice we used have been backcrossed at least 10 times onto a C57BL/6 background and were obtained from homozygous breeding pairs. Control mice were therefore not littermates but were age-matched, wild-type C57BL/6 animals received from the same supplier in the same shipment. All animal protocols were approved by the Brown University Institutional Animal Care and Use Committee. For mouse experiments, only one brain slice per mouse was used for each experiment, so that reported ‘n’ numbers represent the number of animals. Animals were anaesthetized using halothane or isoflurane and quickly decapitated. The brain was rapidly removed and 300 μm thick coronal slices prepared and stored for at least one hour submerged on a net in artificial cerebrospinal fluid (ACSF) containing in mM: 119 NaCl, 26 NaHCO3, 2.5 KCl, 1.0 NaH2PO4, 2.5 CaCl2, 1.3 MgSO4 and 11 dextrose, saturated with 95% O2/5% CO2 (pH 7.4). Slices were then transferred to a submerged recording chamber and bathed in oxygenated ACSF (28-32° C.) containing elevated divalent cations to reduce epileptiform activity (4 mM CaCl2 and 4 mM MgCl2, replacing MgSO4). A surgical cut was made between the CA3 and CA1 regions. The storage of slices submerged on a net rather than in an interface chamber on filter paper may be important in maintaining slice health and improving the likelihood of observing LTD.
(§2) Slices were continuously perfused with ACSF warmed to 28-32° C. at a flow rate of 1-2 ml/min. Picrotoxin (100 μM) and D-AP5 (50 μM) were added to block GABAA receptor- and NMDAR-mediated synaptic transmission. Whole-cell patch clamp recordings were made from interneurons identified visually in the CA1 stratum radiatum of the hippocampus. […] Patch pipettes were filled with internal recording solution containing in mM: 117 cesium gluconate, 2.8 NaCl, 5 MgCl2, 20 HEPES, 2 ATP-Na^+, 0.3 GTP-Na^+ and 0.6 EGTA. In some experiments 2 μM capsazepine, 140 nM baicalein, or 250 μM GDPβS were also included in the intracellular patch pipette solution. In experiments with BAPTA-containing patch electrodes, EGTA was omitted from the intracellular solution and 25 or 40 mM BAPTA replaced a corresponding amount of cesium gluconate. EPSCs were stimulated at 0.1 Hz (100 μsec) using a bipolar stainless steel stimulating electrode placed in stratum radiatum at least 200 μm from the recorded cell. CA1 interneurons were voltage clamped at −65 mV (not corrected for the liquid junction potential, of ˜10 mV), and EPSCs were evoked by paired pulses with an interval of 50 msec (stimulus intensity typically 50-400 μA). In early experiments, we measured rectification ratios of EPSCs evoked at +40 mV/−60 mV in the presence of 50 μM D-AP5, measured at the time of peak inward synaptic current seen at −70 mV (Lei and McBain, 2004).
The maximal initial slope of fEPSPs was calculated using a LabVIEW-based program (National Instruments). The peak amplitude of each EPSC was measured by comparing a 10 msec time period immediately prior to the stimulus with the peak of the EPSC using this program as well. Occasionally polysynaptic responses were evoked, and in these cases, only the initial monosynaptic event was measured. To positively identify LTD, EPSCs measured every 10 seconds were averaged in 1 minute intervals. EPSC amplitude values were normalized to control pre-HFS EPSC amplitude values (baseline period of at least 5 minutes prior to HFS) and subjected to analysis of variance (ANOVA) repeated measures analysis with a post-hoc Dunnett's test (GraphPad Prism, Version 4).

TRPV1 receptors = biological target: T1, TRPV1 receptors (Rattus norvegicus, UniProt O35433); assay: Capsaicin-evoked inward current (peak change in holding current) in hippocampal neurons; format: cell-based
T1 construct: inward currents were elicited in both CA3 and CA1 pyramidal cells; from tissue; host or cells: acute coronal hippocampal slices: CA1 and CA3 pyramidal cells and CA1 stratum radiatum interneurons
Procedure: as §2
The maximal initial slope of fEPSPs was calculated using a LabVIEW-based program (National Instruments). The peak amplitude of each EPSC was measured by comparing a 10 msec time period immediately prior to the stimulus with the peak of the EPSC using this program as well. Occasionally polysynaptic responses were evoked, and in these cases, only the initial monosynaptic event was measured. To positively identify LTD, EPSCs measured every 10 seconds were averaged in 1 minute intervals. EPSC amplitude values were normalized to control pre-HFS EPSC amplitude values (baseline period of at least 5 minutes prior to HFS) and subjected to analysis of variance (ANOVA) repeated measures analysis with a post-hoc Dunnett's test (GraphPad Prism, Version 4). […] EPSC amplitude values 15 to 20 minutes post-HFS were compared between control LTD experiments and those carried out either in transgenic TRPV1^−/− mice, or in the presence of drug using a t-test (unpaired, two-tailed, with Welch's correction if the variances between the groups were unequal). To calculate the effects of capsaicin, 12-(S)-HPETE or WIN 55,212-2 application on basal excitatory glutamatergic transmission, normalized EPSC amplitudes or fEPSP slopes were averaged in the final 5 minutes of drug application and compared with EPSCs/EPSPs 5 minutes prior to drug application. […] The n-values reported refer to the number of slices. All combined data are expressed as mean±the standard error of the mean (s.e.m.).

TRPV1 channels = biological target: T2, TRPV1 channels (Mus musculus, UniProt Q704Y3); assay: TRPV1 agonist-evoked inward current and depolarization in CA1 pyramidal neurons; format: cell-based
T2 construct: whole-cell recordings from acutely prepared brain slices from wild type C57BL/6 mice; from tissue; host or cells: acute coronal hippocampal slices from P14-P20 wild-type C57BL/6 mice: CA1 pyramidal neurons

[2] = system: excitatory synapses onto CA1 hippocampal interneurons; assay: HFS-induced long-term depression (LTD) of EPSCs, whole-cell recording in hippocampal slices; format: cell-based, rat
Source text: as §1, §2
High-frequency stimulation was used to induce LTD (HFS; two 1 sec trains at 100 Hz, inter-train interval 20 sec, at 1.5 times test current intensity) with the neuron held in current-clamp mode, so that the HFS trains were delivered with the membrane potential free to vary. Receptor antagonists were added directly to the ACSF at known concentrations for at least 10 minutes prior to HFS. Control experiments were interleaved with those experiments using receptor antagonists or involving slices from TRPVl^−/− mice. The cell input resistance and series resistance were monitored throughout each experiment; cells were discarded if these values changed by more than 10% during the experiment.

[3] = capsaicin 3 μM, capsazepine 10 μM, n=5

T1 sequence (O35433 whole entry): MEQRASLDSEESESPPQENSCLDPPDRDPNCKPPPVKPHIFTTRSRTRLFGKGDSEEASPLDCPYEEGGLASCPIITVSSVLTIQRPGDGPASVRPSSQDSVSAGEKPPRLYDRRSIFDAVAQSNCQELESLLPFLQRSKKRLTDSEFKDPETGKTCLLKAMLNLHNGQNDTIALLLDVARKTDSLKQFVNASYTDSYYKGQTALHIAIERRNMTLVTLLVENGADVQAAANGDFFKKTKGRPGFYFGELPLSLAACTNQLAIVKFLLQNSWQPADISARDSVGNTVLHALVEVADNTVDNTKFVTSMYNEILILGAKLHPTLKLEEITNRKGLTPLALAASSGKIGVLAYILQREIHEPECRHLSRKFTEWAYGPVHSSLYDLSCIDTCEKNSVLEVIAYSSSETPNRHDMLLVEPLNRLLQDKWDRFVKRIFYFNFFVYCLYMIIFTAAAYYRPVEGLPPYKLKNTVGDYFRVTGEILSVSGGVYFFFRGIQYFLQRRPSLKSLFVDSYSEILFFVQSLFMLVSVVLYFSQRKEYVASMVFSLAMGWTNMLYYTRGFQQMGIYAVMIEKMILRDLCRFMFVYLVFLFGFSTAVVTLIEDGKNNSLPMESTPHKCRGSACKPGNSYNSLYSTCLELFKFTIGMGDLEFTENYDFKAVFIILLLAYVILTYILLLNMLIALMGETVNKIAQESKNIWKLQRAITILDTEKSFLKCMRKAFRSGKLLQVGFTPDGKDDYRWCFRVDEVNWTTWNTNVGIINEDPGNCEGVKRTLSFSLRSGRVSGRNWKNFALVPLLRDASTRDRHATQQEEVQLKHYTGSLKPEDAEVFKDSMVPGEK
T2 sequence (Q704Y3 whole entry): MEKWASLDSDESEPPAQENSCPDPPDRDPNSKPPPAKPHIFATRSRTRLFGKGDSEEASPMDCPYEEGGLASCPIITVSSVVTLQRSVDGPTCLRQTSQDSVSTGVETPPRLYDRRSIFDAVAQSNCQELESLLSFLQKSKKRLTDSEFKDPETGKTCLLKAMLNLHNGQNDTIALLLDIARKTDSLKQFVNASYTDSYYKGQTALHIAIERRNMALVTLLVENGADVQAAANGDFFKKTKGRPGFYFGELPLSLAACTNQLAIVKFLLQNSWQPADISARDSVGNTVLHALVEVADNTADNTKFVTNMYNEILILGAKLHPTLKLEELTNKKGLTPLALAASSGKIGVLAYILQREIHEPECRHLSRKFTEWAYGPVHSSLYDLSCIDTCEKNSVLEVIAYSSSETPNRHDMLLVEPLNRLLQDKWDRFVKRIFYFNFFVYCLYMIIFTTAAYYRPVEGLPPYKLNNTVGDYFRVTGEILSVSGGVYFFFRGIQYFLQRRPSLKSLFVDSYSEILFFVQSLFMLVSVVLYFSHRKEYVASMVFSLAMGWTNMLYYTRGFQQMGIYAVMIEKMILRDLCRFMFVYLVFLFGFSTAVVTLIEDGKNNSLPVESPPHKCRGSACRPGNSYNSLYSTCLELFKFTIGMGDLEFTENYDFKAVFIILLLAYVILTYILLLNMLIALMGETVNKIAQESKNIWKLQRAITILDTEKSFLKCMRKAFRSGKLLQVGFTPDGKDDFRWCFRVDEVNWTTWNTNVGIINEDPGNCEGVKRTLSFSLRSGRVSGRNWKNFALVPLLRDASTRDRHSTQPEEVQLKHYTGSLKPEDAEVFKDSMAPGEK

Structure (SMILES)	EPSC amplitudes after 10-15 minutes in capsaicin ([1]; capsaicin 1 μM bath-applied, n=14)	1 μM capsaicin response in interneurons (TRPV1 receptors; 1 μM capsaicin, P=0.78 vs pre-drug, n=5) [pA]	peak capsaicin response in CA3 pyramidal cells (inward current) (TRPV1 receptors; 3 μM capsaicin bath application, n=5) [pA]	peak capsaicin response in CA1 pyramidal cells (inward current) (TRPV1 receptors; 3 μM capsaicin bath application, n=7) [pA]	peak capsaicin response in interneurons (inward current) (TRPV1 receptors; 3 μM capsaicin, CA1 stratum radiatum interneurons, n=5) [pA]	capsaicin-evoked current in a CA1 neuron (TRPV1 channels; capsaicin 3 μM bath-applied)	effect on membrane potential of CA1 pyramidal neurons (TRPV1 channels; capsaicin 3 μM bath-applied, current-clamp)	EPSC amplitudes 15-20 minutes post-HFS ([2]; HFS after capsaicin 1 μM exposure (occlusion), n=10)	EPSC amplitudes after 10-15 minutes in 1 μM capsaicin and in the presence of intracellular capsazepine ([1]; capsazepine 2 μM in patch pipette, capsaicin 1 μM bath, n=6)	EPSC amplitudes after 10-15 minutes in 12-(S)-HPETE and in the presence of capsazepine ([1]; capsazepine 10 μM, 12-(S)-HPETE 100 nM, n=6)	Peak capsaicin response in the presence of capsazepine in CA1 interneurons (TRPV1 receptors; capsaicin 3 μM, capsazepine 10 μM, P=0.06, n=5) [pA]	Peak capsaicin response in the presence of capsazepine in CA1 pyramidal cells (TRPV1 receptors; [3]) [pA]	Peak capsaicin response in the presence of capsazepine in CA3 pyramidal cells (TRPV1 receptors; [3]) [pA]	effect on capsaicin-induced depolarization of CA1 pyramidal neurons (TRPV1 channels; 2 μM intracellular capsazepine, capsaicin 3 μM, p<0.001)	capsaicin-evoked current in the presence of capsazepine (TRPV1 channels; capsaicin 3 μM plus capsazepine 10 μM)	effect on 12-(S)-HPETE-evoked inward current (TRPV1 channels; capsazepine 10 μM, 12-(S)-HPETE 100 nM)	EPSC amplitudes 10-15 minutes after adding capsazepine ([2]; 10 μM capsazepine added 10 minutes after HFS (LTD maintenance), n=6)	EPSC amplitudes 15-20 minutes post-HFS with intracellular capsazepine ([2]; capsazepine 2 μM in patch pipette, P=0.20 vs control LTD, n=7)	EPSC amplitudes 15-20 minutes post-HFS in capsazepine ([2]; capsazepine 10 μM bath applied prior to HFS, n=9)
COc1cc(CNC(=O)CCCCC=CC(C)C)ccc1O [capsaicin, 8-methyl-N-vanillyl-6-nonenamide]	73.3±4.6 % of pre-drug control values	0.7±0.3	180.1±48.0	160.1±55.3	41.6±16.2	induces inward current	significantly depolarized	112.5±21.9 % of control values in capsaicin before HFS	–	–	–	–	–	–	–	–	–	–	–
Oc1cc2c(cc1O)CN(C(=S)NCCc1ccc(Cl)cc1)CCC2 [capsazepine]	–	–	–	–	–	–	–	–	46.8±10.3 % of pre-capsaicin control values	103.0±8.9 % of pre-12-(S)-HPETE control values	0.4±0.2	0.1±0.1	0.1±0.1	prevented	does not induce current	blocked	50.1±6.1 % of pre-HFS values	47.5±10.3 % of control values before HFS	105.6±8.6 % of control values before HFS
